Results from publication PMC2923275 (Biochemical pharmacology, 2010).

Key:
[1] = tested on: wild type (RH) strain of T. gondii; assay: Anti-toxoplasmic activity in tissue culture; type: cell-based, Toxoplasma gondii; settings: wild type (RH) in human fibroblasts
[2] = tested on: adenosine kinase deficient (TgAK^-3) strain of T. gondii; assay: Anti-toxoplasmic activity in tissue culture; type: cell-based, Toxoplasma gondii; settings: TgAK^-3 in human fibroblasts
[3] = tested on: Toxoplasma gondii adenosine kinase; settings: cited from earlier work; for Km: read-out: Km (binding affinity), apparent Km equal to apparent Ki
[4] = biological target: purified T. gondii adenosine kinase (Toxoplasma gondii, UniProt Q9TVW2); assay: Alternative substrate assay with purified recombinant enzyme; type: biochemical; settings: 100 μM analogue, overnight at 37°C, HPLC
[5] = tested on: uninfected human foreskin fibroblasts; assay: Host toxicity, MTT assay on uninfected host cells; settings: infection: None
[6] = tested on: Toxoplasma gondii adenosine kinase; assay: Binding affinity; settings: relative to 6-(p-methylbenzylthio)inosine; ref 24 and Table 2

purified T. gondii adenosine kinase, sequence (Q9TVW2 whole entry): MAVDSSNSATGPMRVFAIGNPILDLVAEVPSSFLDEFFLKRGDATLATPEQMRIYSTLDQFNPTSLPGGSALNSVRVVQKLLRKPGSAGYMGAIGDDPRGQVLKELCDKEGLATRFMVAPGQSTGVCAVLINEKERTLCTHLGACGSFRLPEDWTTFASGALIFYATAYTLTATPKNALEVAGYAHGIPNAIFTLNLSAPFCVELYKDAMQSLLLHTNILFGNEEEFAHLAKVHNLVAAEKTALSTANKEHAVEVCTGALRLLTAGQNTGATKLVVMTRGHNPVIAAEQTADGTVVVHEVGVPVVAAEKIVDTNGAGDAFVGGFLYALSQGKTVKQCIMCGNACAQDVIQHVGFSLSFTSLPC

Compound: 6-Benzylthioinosine [Compound 22, reference compound]
- percent survival of parasite ([1]; 5 μM compound): 92.7%
- percent survival of parasite ([1]; 10 μM compound): 45.8%
- percent survival of parasite ([1]; 25 μM compound): 7.6%
- percent survival of parasite ([1]; 50 μM compound): 0.0%
- percent survival of parasite ([2]; 5 μM compound): 100%
- percent survival of parasite ([2]; 10 μM compound): 100%
- percent survival of parasite ([2]; 25 μM compound): 100%
- percent survival of parasite ([2]; 50 μM compound): 100%
- Km [3]: 14.3 µM

Compound: OCC1CC(n2cnc3c(SCc4ccccc4)ncnc32)C(O)C1O (centres unmarked) [Compound 1, Carbocyclic 6-(benzylthio)inosine]
- percent survival of parasite ([1]; 5 μM compound): 84.7%
- percent survival of parasite ([1]; 10 μM compound): 42.7%
- percent survival of parasite ([1]; 25 μM compound): 4.9%
- percent survival of parasite ([1]; 50 μM compound): 0.0%
- metabolism to nucleoside 5'-monophosphate by the enzyme [4]: converted to their respective nucleoside 5’-monophosphates
- percent survival of parasite ([2]; 5 μM compound): 100%
- percent survival of parasite ([2]; 10 μM compound): 100%
- percent survival of parasite ([2]; 25 μM compound): 100%
- percent survival of parasite ([2]; 50 μM compound): 100%
- Km [3]: 105 µM
- host-toxicity (survival of uninfected host cells) ([5]; 5 μM compound): 100%
- host-toxicity (survival of uninfected host cells) ([5]; 10 μM compound): 100%
- host-toxicity (survival of uninfected host cells) ([5]; 25 μM compound): 100%
- host-toxicity (survival of uninfected host cells) ([5]; 50 μM compound): 94.3%

Compound: OCC1CC(n2cnc3c(SCc4ccc(F)cc4)ncnc32)C(O)C1O (centres unmarked) [Compound 8, Carbocyclic 6-(p-fluorobenzylthio)inosine]
- percent survival of parasite ([1]; 5 μM compound): 89.2%
- percent survival of parasite ([1]; 10 μM compound): 61.5%
- percent survival of parasite ([1]; 25 μM compound): 12.4%
- percent survival of parasite ([1]; 50 μM compound): 3.4%
- metabolism to nucleoside 5'-monophosphate by the enzyme [4]: its 5’-monophosphate derivative appeared as a new peak
- percent survival of parasite ([2]; 5 μM compound): 100%
- percent survival of parasite ([2]; 10 μM compound): 100%
- percent survival of parasite ([2]; 25 μM compound): 100%
- percent survival of parasite ([2]; 50 μM compound): 100%
- host-toxicity (survival of uninfected host cells) ([5]; 5 μM compound): 100%
- host-toxicity (survival of uninfected host cells) ([5]; 10 μM compound): 100%
- host-toxicity (survival of uninfected host cells) ([5]; 25 μM compound): 100%
- host-toxicity (survival of uninfected host cells) ([5]; 50 μM compound): 100%

Compound: Cc1ccc(CSc2ncnc3c2ncn3C2CC(CO)C(O)C2O)cc1 (centres unmarked) [Compound 11, Carbocyclic 6-(p-methylbenzylthio)inosine]
- percent survival of parasite ([1]; 5 μM compound): 43.4%
- percent survival of parasite ([1]; 10 μM compound): 2.54%
- percent survival of parasite ([1]; 25 μM compound): 0.0%
- percent survival of parasite ([1]; 50 μM compound): 0.0%
- enhancement of binding by inclusion of the carbocyclic motif [6]: 3.7 fold
- percent survival of parasite ([2]; 5 μM compound): 99.0%
- percent survival of parasite ([2]; 10 μM compound): 100%
- percent survival of parasite ([2]; 25 μM compound): 100%
- percent survival of parasite ([2]; 50 μM compound): 100%
- host-toxicity (survival of uninfected host cells) ([5]; 5 μM compound): 100%
- host-toxicity (survival of uninfected host cells) ([5]; 10 μM compound): 100%
- host-toxicity (survival of uninfected host cells) ([5]; 25 μM compound): 100%
- host-toxicity (survival of uninfected host cells) ([5]; 50 μM compound): 100%

Compound: 7-deaza-6-(p-methylbenzylthio)inosines
- increase of relative binding affinity by inclusion of the 7-deaza motif ([3]; relative to 6-(p-methylbenzylthio)inosine): 2.8 fold

Compound: CS(=O)(=O)c1ccc(CSc2ncnc3c2ncn3C2CC(CO)C(O)C2O)cc1 (centres unmarked) [Compound 17, Carbocyclic 6-(p-methylsulfonylbenzylthio)inosine]
- percent survival of parasite ([1]; 5 μM compound): 66.8%
- percent survival of parasite ([1]; 10 μM compound): 21.2%
- percent survival of parasite ([1]; 25 μM compound): 0.0%
- percent survival of parasite ([1]; 50 μM compound): 0.0%
- percent survival of parasite ([2]; 5 μM compound): 100%
- percent survival of parasite ([2]; 10 μM compound): 100%
- percent survival of parasite ([2]; 25 μM compound): 100%
- percent survival of parasite ([2]; 50 μM compound): 100%
- host-toxicity (survival of uninfected host cells) ([5]; 5 μM compound): 100%
- host-toxicity (survival of uninfected host cells) ([5]; 10 μM compound): 100%
- host-toxicity (survival of uninfected host cells) ([5]; 25 μM compound): 100%
- host-toxicity (survival of uninfected host cells) ([5]; 50 μM compound): 100%

Compound: O=[N+]([O-])c1cccc(CSc2ncnc3c2ncn3C2CC(CO)C(O)C2O)c1 (centres unmarked) [Compound 7, Carbocyclic 6-(m-nitrobenzylthio)inosine]
- percent survival of parasite ([1]; 5 μM compound): 84.4%
- percent survival of parasite ([1]; 10 μM compound): 50.9%
- percent survival of parasite ([1]; 25 μM compound): 4.2%
- percent survival of parasite ([1]; 50 μM compound): 0.0%
- percent survival of parasite ([2]; 5 μM compound): 100%
- percent survival of parasite ([2]; 10 μM compound): 100%
- percent survival of parasite ([2]; 25 μM compound): 100%
- percent survival of parasite ([2]; 50 μM compound): 100%
- host-toxicity (survival of uninfected host cells) ([5]; 5 μM compound): 100%
- host-toxicity (survival of uninfected host cells) ([5]; 10 μM compound): 100%
- host-toxicity (survival of uninfected host cells) ([5]; 25 μM compound): 100%
- host-toxicity (survival of uninfected host cells) ([5]; 50 μM compound): 100%

Compound: OCC1CC(n2cnc3c(SCc4cccc(C(F)(F)F)c4)ncnc32)C(O)C1O (centres unmarked) [Compound 6, Carbocyclic 6-(m-trifluoromethylbenzylthio)inosine]
- percent survival of parasite ([1]; 5 μM compound): 79.0%
- percent survival of parasite ([1]; 10 μM compound): 47.1%
- percent survival of parasite ([1]; 25 μM compound): 6.3%
- percent survival of parasite ([1]; 50 μM compound): 1.0%
- percent survival of parasite ([2]; 5 μM compound): 100%
- percent survival of parasite ([2]; 10 μM compound): 100%
- percent survival of parasite ([2]; 25 μM compound): 100%
- percent survival of parasite ([2]; 50 μM compound): 100%
- host-toxicity (survival of uninfected host cells) ([5]; 5 μM compound): 100%
- host-toxicity (survival of uninfected host cells) ([5]; 10 μM compound): 100%
- host-toxicity (survival of uninfected host cells) ([5]; 25 μM compound): 100%
- host-toxicity (survival of uninfected host cells) ([5]; 50 μM compound): 90.6%

Compound: OCC1CC(n2cnc3c(SCc4ccc(Cl)cc4Cl)ncnc32)C(O)C1O (centres unmarked) [Compound 18, Carbocyclic 6-(o,p-dichlorobenzylthio)inosine]
- percent survival of parasite ([1]; 5 μM compound): 84.4%
- percent survival of parasite ([1]; 10 μM compound): 45.1%
- percent survival of parasite ([1]; 25 μM compound): 0.0%
- percent survival of parasite ([1]; 50 μM compound): 0.0%
- percent survival of parasite ([2]; 5 μM compound): 100%
- percent survival of parasite ([2]; 10 μM compound): 100%
- percent survival of parasite ([2]; 25 μM compound): 100%
- percent survival of parasite ([2]; 50 μM compound): 100%
- host-toxicity (survival of uninfected host cells) ([5]; 5 μM compound): 100%
- host-toxicity (survival of uninfected host cells) ([5]; 10 μM compound): 100%
- host-toxicity (survival of uninfected host cells) ([5]; 25 μM compound): 100%
- host-toxicity (survival of uninfected host cells) ([5]; 50 μM compound): 90.6%

Compound: N#Cc1ccc(CSc2ncnc3c2ncn3C2CC(CO)C(O)C2O)cc1 (centres unmarked) [Compound 13, Carbocyclic 6-(p-cyanobenzylthio)inosine]
- percent survival of parasite ([1]; 5 μM compound): 100%
- percent survival of parasite ([1]; 10 μM compound): 100%
- percent survival of parasite ([1]; 25 μM compound): 48.8%
- percent survival of parasite ([1]; 50 μM compound): 17.8%
- percent survival of parasite ([2]; 5 μM compound): 100%
- percent survival of parasite ([2]; 10 μM compound): 100%
- percent survival of parasite ([2]; 25 μM compound): 100%
- percent survival of parasite ([2]; 50 μM compound): 100%
- host-toxicity (survival of uninfected host cells) ([5]; 5 μM compound): 100%
- host-toxicity (survival of uninfected host cells) ([5]; 10 μM compound): 100%
- host-toxicity (survival of uninfected host cells) ([5]; 25 μM compound): 100%
- host-toxicity (survival of uninfected host cells) ([5]; 50 μM compound): 100%

Compound: COc1ccc(CSc2ncnc3c2ncn3C2CC(CO)C(O)C2O)cc1 (centres unmarked) [Compound 15, Carbocyclic 6-(p-methoxybenzylthio)inosine]
- percent survival of parasite ([1]; 5 μM compound): 48.3%
- percent survival of parasite ([1]; 10 μM compound): 1.9%
- percent survival of parasite ([1]; 25 μM compound): 0.0%
- percent survival of parasite ([1]; 50 μM compound): 0.0%
- percent survival of parasite ([2]; 5 μM compound): 98.4%
- percent survival of parasite ([2]; 10 μM compound): 100%
- percent survival of parasite ([2]; 25 μM compound): 100%
- percent survival of parasite ([2]; 50 μM compound): 100%
- host-toxicity (survival of uninfected host cells) ([5]; 5 μM compound): 100%
- host-toxicity (survival of uninfected host cells) ([5]; 10 μM compound): 100%
- host-toxicity (survival of uninfected host cells) ([5]; 25 μM compound): 94.3%
- host-toxicity (survival of uninfected host cells) ([5]; 50 μM compound): 82.1%

Compound: OCC1CC(n2cnc3c(SCc4ccccc4F)ncnc32)C(O)C1O (centres unmarked) [Compound 2, Carbocyclic 6-(o-fluorobenzylthio)inosine]
- percent survival of parasite ([1]; 5 μM compound): 98.6%
- percent survival of parasite ([1]; 10 μM compound): 93.7%
- percent survival of parasite ([1]; 25 μM compound): 39.2%
- percent survival of parasite ([1]; 50 μM compound): 12.7%
- percent survival of parasite ([2]; 5 μM compound): 100%
- percent survival of parasite ([2]; 10 μM compound): 100%
- percent survival of parasite ([2]; 25 μM compound): 100%
- percent survival of parasite ([2]; 50 μM compound): 100%
- host-toxicity (survival of uninfected host cells) ([5]; 5 μM compound): 100%
- host-toxicity (survival of uninfected host cells) ([5]; 10 μM compound): 100%
- host-toxicity (survival of uninfected host cells) ([5]; 25 μM compound): 100%
- host-toxicity (survival of uninfected host cells) ([5]; 50 μM compound): 85.8%

Compound: Cc1ccc(CSc2ncnc3c2ncn3C2CC(CO)C(O)C2O)c(C)c1C (centres unmarked) [Compound 21, Carbocyclic 6-(o,m,p-trimethylbenzylthio)inosine]
- percent survival of parasite ([1]; 5 μM compound): 71.0%
- percent survival of parasite ([1]; 10 μM compound): 32.7%
- percent survival of parasite ([1]; 25 μM compound): 0.0%
- percent survival of parasite ([1]; 50 μM compound): 0.0%
- percent survival of parasite ([2]; 5 μM compound): 100%
- percent survival of parasite ([2]; 10 μM compound): 100%
- percent survival of parasite ([2]; 25 μM compound): 100%
- percent survival of parasite ([2]; 50 μM compound): 100%
- host-toxicity (survival of uninfected host cells) ([5]; 5 μM compound): 100%
- host-toxicity (survival of uninfected host cells) ([5]; 10 μM compound): 100%
- host-toxicity (survival of uninfected host cells) ([5]; 25 μM compound): 90.6%
- host-toxicity (survival of uninfected host cells) ([5]; 50 μM compound): 93.2%
